Assay results reported in paper PMC10167348, “Structural mechanisms of TRPM7 activation and inhibition” (Nature Communications, 2023).
Where a chain is given by its changes, count along the chain named. Names and notes keep the numbering of the source.

How the values were obtained:
[1] = target: T1, TRPM7-W1111A (Mus musculus, UniProt Q923J1, W1111A); experiment: Aequorin-based Ca2+ influx assay, inhibition of TRPM7-mediated Ca2+ influx; assay type: cell-based; conditions: antagonist, mean ± SEM
T1 construct: expressed in transfected cells; host or cells: HEK 293T
T1 sequence (Q923J1 whole entry W1111A): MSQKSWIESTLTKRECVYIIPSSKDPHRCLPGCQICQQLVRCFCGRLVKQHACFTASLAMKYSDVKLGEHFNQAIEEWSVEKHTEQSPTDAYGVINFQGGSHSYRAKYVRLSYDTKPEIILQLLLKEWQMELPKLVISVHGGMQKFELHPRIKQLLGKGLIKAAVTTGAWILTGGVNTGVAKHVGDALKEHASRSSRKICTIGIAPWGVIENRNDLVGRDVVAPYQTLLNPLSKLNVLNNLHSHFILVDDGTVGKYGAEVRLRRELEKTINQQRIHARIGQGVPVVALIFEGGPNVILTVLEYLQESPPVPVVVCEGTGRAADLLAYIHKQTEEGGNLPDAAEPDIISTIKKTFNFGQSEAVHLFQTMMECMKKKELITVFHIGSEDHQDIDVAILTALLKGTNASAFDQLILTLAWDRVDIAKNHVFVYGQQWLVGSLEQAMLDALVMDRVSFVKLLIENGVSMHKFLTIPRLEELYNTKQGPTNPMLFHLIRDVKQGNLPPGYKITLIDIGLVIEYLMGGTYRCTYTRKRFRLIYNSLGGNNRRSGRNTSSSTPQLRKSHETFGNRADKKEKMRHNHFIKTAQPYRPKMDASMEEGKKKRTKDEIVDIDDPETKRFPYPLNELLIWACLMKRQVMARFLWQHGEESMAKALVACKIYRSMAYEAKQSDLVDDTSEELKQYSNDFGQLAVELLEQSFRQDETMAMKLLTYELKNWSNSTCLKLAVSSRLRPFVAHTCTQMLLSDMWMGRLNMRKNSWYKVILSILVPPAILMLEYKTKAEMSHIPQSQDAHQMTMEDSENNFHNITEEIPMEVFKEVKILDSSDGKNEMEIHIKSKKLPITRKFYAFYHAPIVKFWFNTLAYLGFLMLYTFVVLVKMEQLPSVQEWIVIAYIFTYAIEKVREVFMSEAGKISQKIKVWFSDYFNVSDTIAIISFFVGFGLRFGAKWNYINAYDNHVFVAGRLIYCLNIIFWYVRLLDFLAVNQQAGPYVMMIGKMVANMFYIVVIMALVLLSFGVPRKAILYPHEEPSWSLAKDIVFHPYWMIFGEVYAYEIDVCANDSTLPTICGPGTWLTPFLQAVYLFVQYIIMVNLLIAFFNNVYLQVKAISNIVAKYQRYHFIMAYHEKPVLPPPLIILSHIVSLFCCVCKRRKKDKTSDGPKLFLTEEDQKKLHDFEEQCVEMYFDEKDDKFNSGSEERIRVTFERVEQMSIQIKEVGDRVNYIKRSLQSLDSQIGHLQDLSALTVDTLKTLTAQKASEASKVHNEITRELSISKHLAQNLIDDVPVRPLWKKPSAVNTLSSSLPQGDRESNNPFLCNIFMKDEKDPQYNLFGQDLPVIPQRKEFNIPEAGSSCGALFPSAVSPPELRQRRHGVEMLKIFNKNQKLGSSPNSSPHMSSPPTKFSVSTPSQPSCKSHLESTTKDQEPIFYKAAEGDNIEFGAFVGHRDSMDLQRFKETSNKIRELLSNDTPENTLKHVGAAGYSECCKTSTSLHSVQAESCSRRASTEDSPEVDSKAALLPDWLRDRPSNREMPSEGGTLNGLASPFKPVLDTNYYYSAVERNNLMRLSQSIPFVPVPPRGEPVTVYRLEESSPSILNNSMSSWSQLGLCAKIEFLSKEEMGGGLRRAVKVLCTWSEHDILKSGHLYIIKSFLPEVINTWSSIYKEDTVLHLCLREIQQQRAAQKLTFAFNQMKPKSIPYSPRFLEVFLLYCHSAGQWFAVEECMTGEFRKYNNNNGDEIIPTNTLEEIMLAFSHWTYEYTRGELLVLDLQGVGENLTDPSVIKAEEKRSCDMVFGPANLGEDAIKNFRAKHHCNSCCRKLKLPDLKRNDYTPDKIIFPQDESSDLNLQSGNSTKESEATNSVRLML
Protocol: (§1) Measurements of [Ca^2+]i were performed as reported previously with several modifications[2],[52],[54]. HEK 293T cells (mycoplasma test negative, ATCC #CRL3216) were maintained at 37 °C and 5% CO2 in DMEM supplemented with 10% fetal calf serum, 100 µg/ml streptomycin and 100 U/ml penicillin (all from Thermo Fisher Scientific). Cells cultured in six-well plates (~60% confluence) were transfected with 2 µg/dish Trpm7 plasmid DNA and 0.1 µg/dish pG5A plasmid DNA encoding eGFP fused to Aequorea victoria aequorin, using Lipofectamine 2000 (Thermo Fisher Scientific). Twenty-four hours after transfection, the cells were washed with Mg^2+-free HEPES-buffered saline (Mg^2+-free HBS) containing 140 mM NaCl, 6 mM KCl, 0.5 mM CaCl2, 10 mM HEPES (pH 7.4) and 5 mM glucose, and mechanically resuspended in the Mg^2+-free HBS. For reconstitution of aequorin, cell suspensions were incubated with 5 µM coelenterazine (Biaffin GmbH) in the Mg^2+-free HBS for 30 min at room temperature. Cells were washed twice by centrifugation at 600 rpm for 5 min (Heraeus Pico 17 microcentrifuge, Thermo Fisher Scientific), resuspended in the Mg^2+-free HBS and aliquoted into 96-well plates (1 × 10^5 cells per well). Luminescence was detected at room temperature using a FLUOstar OPTIMA microplate reader (BMG LABTECH GmbH). To monitor the NS8593- and VER155008-induced inhibition of TRPM7-mediated Ca^2+ influx, the extracellular concentration of Ca^2+ was increased to 5 mM by injecting the CaCl2-containing Mg^2+-free HBS in the absence or presence of the inhibitors. […] To study activation by naltriben, TRPM7-transfected cells were exposed to Mg^2+-free HBS containing different concentrations of the agonist. The experiments were terminated by lysing cells with 0.1% (v/v) Triton X-100 in the Mg^2+-free HBS to record the total bioluminescence. The bioluminescence rates (counts/s) were analyzed at 1-s intervals and calibrated as [Ca^2+]i values using the following equation:1 p[Ca^2+]i=0.332588(−log(k))+5.5593 where k represents the rate of aequorin consumption, i.e., counts/s divided by the total number of counts.
(§2) To determine the IC50 values for NS8593 and VER155008 (EC50 for naltriben), the data were fitted with the following logistic equation:2 Ec=Emin+Emax+Emin/1+c^h/IC50^h where E(c) is the functional effect at the concentration c of the compound, Emin is the minimal effect, Emax is the maximal effect, IC50 (EC50) is the concentration of the compound that produces the half-maximal effect, and h is the Hill coefficient. Fitting of dose-response curves was performed using GraphPad Prism 8.4.0. Data are presented as the mean ± SEM.

[2] = target: T2, TRPM7-A981V (Mus musculus, UniProt Q923J1, A981V); experiment: as above; assay type: cell-based; conditions: antagonist, mean ± SEM
T2 construct: expressed in transfected cells; host or cells: HEK 293T
T2 sequence (Q923J1 whole entry A981V): as the sequence (Q923J1 whole entry W1111A) above, with A981V, A1111W counted along it
Protocol: as §1, §2

[3] = target: T3, TRPM7-M991A (Mus musculus, UniProt Q923J1, M991A); experiment: as above; assay type: cell-based; conditions: for sensitivity of the mutant to the inhibitor: TRPM7-M991A
T3 construct: expressed in transfected cells; host or cells: HEK 293T
T3 sequence (Q923J1 whole entry M991A): as the sequence (Q923J1 whole entry W1111A) above, with M991A, A1111W counted along it
Protocol: as §1, §2

[4] = target: T4, TRPM7-A981L (Mus musculus, UniProt Q923J1, A981L); experiment: as above; assay type: cell-based; conditions: antagonist, mean ± SEM
T4 construct: expressed in transfected cells; host or cells: HEK 293T
T4 sequence (Q923J1 whole entry A981L): as the sequence (Q923J1 whole entry W1111A) above, with A981L, A1111W counted along it
Protocol: as §1, §2

[5] = target: T5, TRPM7-N1098Q (Mus musculus, UniProt Q923J1, N1098Q); experiment: as above; assay type: cell-based; conditions: N1098Q, antagonist, mean ± SEM
T5 construct: expressed in transfected cells; host or cells: HEK 293T
T5 sequence (Q923J1 whole entry N1098Q): as the sequence (Q923J1 whole entry W1111A) above, with N1098Q, A1111W counted along it
Protocol: as §1, §2

[6] = target: T6, TRPM7 WT (Mus musculus, UniProt Q923J1); experiment: as above; assay type: cell-based; conditions: antagonist, mean ± SEM
T6 construct: expressed in transfected cells; host or cells: HEK 293T
T6 sequence (Q923J1 whole entry): as the sequence (Q923J1 whole entry W1111A) above, with A1111W counted along it
Protocol: as §1, §2

[7] = target: T7, wild-type TRPM7 (Mus musculus, UniProt Q923J1); experiment: Whole-cell patch-clamp recordings in HEK 293T cells; assay type: cell-based; conditions: 10 µM inhibitor, 450-s exposure, amplitude at +80 mV
T7 construct: expressed in transfected cells; host or cells: HEK 293T
T7 sequence (Q923J1 whole entry): as the sequence (Q923J1 whole entry W1111A) above, with A1111W counted along it
Protocol: Patch-clamp experiments were performed as reported previously, with a few modifications[69],[70]. HEK 293T cells grown in 35-mm dishes to ~60% confluence were transiently transfected with Trpm7 cDNAs in the pIRES2-EGFP vector (2 µg/dish). Patch-clamp experiments were conducted 18–22 h after transfection with cells displaying EGFP fluorescence. Whole-cell currents were recorded using an EPC10 patch-clamp amplifier and PatchMaster software (Version V2x69, Harvard Bioscience). Voltages were corrected for a liquid junction potential of 10 mV. Currents were elicited by voltage ramps from –100 mV to +100 mV over 50 ms acquired at 0.5 Hz. The inward and outward current amplitudes were measured at –80 mV and +80 mV and were normalized to the cell size as pA/pF. The capacitance was measured using the automated capacitance cancellation function of EPC10. The standard extracellular solution contained 140 mM NaCl, 2.8 mM KCl, 1 mM CaCl2, 2 mM MgCl2, 10 mM HEPES-NaOH, and 11 mM glucose (all from Sigma-Aldrich). Solutions were adjusted to pH 7.2 using an FE20 pH meter (Mettler Toledo) and to 290 mOsm using a Vapro 5520 osmometer (Wescor Inc). […] For the experiment with naltriben, the intracellular solution contained 120 mM Cs-glutamate, 8 mM NaCl, 10 mM Cs-EGTA, 1.5 mM MgCl2, and 10 mM HEPES-CsOH. The intracellular solution was also adjusted to pH 7.2 and 290 mOsm. Data are presented as the mean ± SEM Unless indicated otherwise, data were compared by unpaired t-test (GraphPad Prism 8.4.0). For multiple comparisons, ordinary one-way ANOVA (GraphPad Prism 8.4.0) was used. Significance was accepted at P ≤ 0.05.

[8] = target: the molecule itself; experiment: cryo-EM structure; single-particle cryo-EM of purified TRPM7 in GDN or in MSP2N2 lipid nanodiscs (POPC:POPE:POPG), 150 mM NaCl, 20 mM Tris pH 8.0; apo or with naltriben, VER155008 or NS8593; final refinement with C4 symmetry

With `N#Cc1ccc(COC[C@H]2O[C@@H](n3c(NCc4ccc(Cl)c(Cl)c4)nc4c(N)ncnc43)[C@H](O)[C@@H]2O)cc1` [VER155008] the IC50 [1] was ~10 µM, the IC50 [2] was “not feasible to calculate the IC50 value” and the IC50 ([3]; M991A, antagonist, no added second inhibitor, mean ± SEM) was “not feasible to calculate the IC50 value”. For the same molecule, the “sensitivity of the mutant to the inhibitor” value ([3]; 0.1-10 μM VER155008 (response to reviewers)) was “no sensitivity”, the “sensitivity of the mutant to the inhibitor” value ([3]; 1–10 µM VER) was “not sensitive” and the IC50 [4] was ~25 µM. For the same molecule, the Hill coefficient [5] was “–1.32 ± 0.20”, the IC50 [5] was 1.71 ± 0.25 µM and the Hill coefficient [6] was “–2.07 ± 0.41”. The IC50 [6] was 0.23 ± 0.03 µM and the “amplitude of TRPM7-mediated currents in the presence of inhibitor” value [7] was “greatly reduced”.

B1: C-terminally truncated mouse TRPM7 (residues 1–1280), wild type (natural protein, UniProt Q923J1 1-1280, looked up)
chain: MSQKSWIESTLTKRECVYIIPSSKDPHRCLPGCQICQQLVRCFCGRLVKQHACFTASLAMKYSDVKLGEHFNQAIEEWSVEKHTEQSPTDAYGVINFQGGSHSYRAKYVRLSYDTKPEIILQLLLKEWQMELPKLVISVHGGMQKFELHPRIKQLLGKGLIKAAVTTGAWILTGGVNTGVAKHVGDALKEHASRSSRKICTIGIAPWGVIENRNDLVGRDVVAPYQTLLNPLSKLNVLNNLHSHFILVDDGTVGKYGAEVRLRRELEKTINQQRIHARIGQGVPVVALIFEGGPNVILTVLEYLQESPPVPVVVCEGTGRAADLLAYIHKQTEEGGNLPDAAEPDIISTIKKTFNFGQSEAVHLFQTMMECMKKKELITVFHIGSEDHQDIDVAILTALLKGTNASAFDQLILTLAWDRVDIAKNHVFVYGQQWLVGSLEQAMLDALVMDRVSFVKLLIENGVSMHKFLTIPRLEELYNTKQGPTNPMLFHLIRDVKQGNLPPGYKITLIDIGLVIEYLMGGTYRCTYTRKRFRLIYNSLGGNNRRSGRNTSSSTPQLRKSHETFGNRADKKEKMRHNHFIKTAQPYRPKMDASMEEGKKKRTKDEIVDIDDPETKRFPYPLNELLIWACLMKRQVMARFLWQHGEESMAKALVACKIYRSMAYEAKQSDLVDDTSEELKQYSNDFGQLAVELLEQSFRQDETMAMKLLTYELKNWSNSTCLKLAVSSRLRPFVAHTCTQMLLSDMWMGRLNMRKNSWYKVILSILVPPAILMLEYKTKAEMSHIPQSQDAHQMTMEDSENNFHNITEEIPMEVFKEVKILDSSDGKNEMEIHIKSKKLPITRKFYAFYHAPIVKFWFNTLAYLGFLMLYTFVVLVKMEQLPSVQEWIVIAYIFTYAIEKVREVFMSEAGKISQKIKVWFSDYFNVSDTIAIISFFVGFGLRFGAKWNYINAYDNHVFVAGRLIYCLNIIFWYVRLLDFLAVNQQAGPYVMMIGKMVANMFYIVVIMALVLLSFGVPRKAILYPHEEPSWSLAKDIVFHPYWMIFGEVYAYEIDVCANDSTLPTICGPGTWLTPFLQAVYLFVQYIIMVNLLIAFFNNVYLQVKAISNIVWKYQRYHFIMAYHEKPVLPPPLIILSHIVSLFCCVCKRRKKDKTSDGPKLFLTEEDQKKLHDFEEQCVEMYFDEKDDKFNSGSEERIRVTFERVEQMSIQIKEVGDRVNYIKRSLQSLDSQIGHLQDLSALTVDTLKTLTAQKASEASKVHNEITRELSISKHLAQNLID
notes: mouse TRPM7 (Trpm7 cDNA NM_021450), truncated C-terminally, protein residues 1–1280; lacks the kinase domain; A thrombin cleavage site (LVPRG) stands between GFP and TRPM7; the purification as described has no thrombin step; also called TRPM7_(Closed); TRPM7_(NTB-open); source: HEK 293S GnTI- cells, baculovirus-transduced (pEG-BacMam), purified (strep resin, SEC); in GDN or reconstituted in …
For B1, the “stoichiometry N” value [8] was 4.

B2: C-terminally truncated mouse TRPM7 (residues 1–1280) with the gain-of-function mutation N1098Q (natural protein, UniProt Q923J1 1-1280, looked up)
chain: B1 chain with N1098Q
notes: mouse TRPM7 (Trpm7 cDNA NM_021450), truncated C-terminally, protein residues 1–1280, with N1098Q; Same construct as m1 with the point mutation; a thrombin cleavage site (LVPRG) stands between GFP and TRPM7, no thrombin step is described; also called TRPM7-N1098Q; TRPM7-N1098Q_(open); source: HEK 293S GnTI- cells, baculovirus-transduced (pEG-BacMam), purified (strep resin, SEC); in GDN
B2: binds [8].
